Converted amounts (≈) assume the structure as drawn. Like-named read-outs stand apart in the source and are kept apart here.
Tested on: M. tuberculosis drug resistant strains
Assay: microbe, parasite or virus in culture
Assay type: cell-based
Details: Mycobacterium tuberculosis, cholesterol medium

Which MIC (ERDMAN, strain Erdman, DS, read-out: MIC 1) does the source give for `Cc1cccc(OC2CCN(Cc3cc(=O)[nH]c(=O)[nH]3)CC2)c1C` [Test Compound, 6-((4-(2,3-dimethylphenoxy)piperidin-1-yl)methyl)pyrimidine-2,4(1H,3H)-dione] here?
Its MIC is 0.78 µM (≈ 0.257 µg/mL).

What about the MIC (ERDMAN, strain Erdman, DS, read-out: MIC 2) of the same compound?
The MIC was 0.6 µM (≈ 0.198 µg/mL).

What about the MIC (H37RV, strain H37Rv, DS, read-out: MIC 2) of the same compound?
Its MIC is 0.39 µM (≈ 0.128 µg/mL).

And the MIC ([…], read-out: MIC 2)?
Its MIC is 0.6 µM (≈ 0.198 µg/mL).

And the MIC (strain CDC1551, DS, read-out: MIC 1)?
The MIC was 0.78 µM (≈ 0.257 µg/mL).

What about the MIC (strain CDC1551, DS, read-out: MIC 2) of the same compound?
The MIC was 0.39 µM (≈ 0.128 µg/mL).

And the MIC (strain HN878, DS, read-out: MIC 1)?
The MIC was 0.78 µM (≈ 0.257 µg/mL).

And the MIC (strain HN878, DS, read-out: MIC 2)?
The MIC was 0.6 µM (≈ 0.198 µg/mL).

What about the MIC (strain K03b00DS, DS, read-out: MIC 1) of the same compound?
Its MIC is 0.3 µM (≈ 0.0988 µg/mL).

What about the MIC (strain K03b00DS, DS, read-out: MIC 2) of the same compound?
The MIC was 0.2 µM (≈ 0.0659 µg/mL).

And the MIC (strain K04b00DS, DS, read-out: MIC 1)?
The MIC was 0.39 µM (≈ 0.128 µg/mL).

And the MIC (strain K07b00DS, DS, read-out: MIC 1)?
The MIC was 0.6 µM (≈ 0.198 µg/mL).

What about the MIC (strain K07b00DS, DS, read-out: MIC 2) of the same compound?
The MIC was 0.39 µM (≈ 0.128 µg/mL).

And the MIC (strain K08b00DS, DS, read-out: MIC 1)?
Its MIC is 0.6 µM (≈ 0.198 µg/mL).

And the MIC (strain K08b00DS, DS, read-out: MIC 2)?
Its MIC is 0.39 µM (≈ 0.128 µg/mL).

And the MIC (strain K11b00DS, DS, read-out: MIC 2)?
Its MIC is 0.78 µM (≈ 0.257 µg/mL).

What about the MIC (strain K12b00DS, DS, read-out: MIC 1) of the same compound?
The MIC was 0.2 µM (≈ 0.0659 µg/mL).

And the MIC (strain K12b00DS, DS, read-out: MIC 2)?
The MIC was 0.6 µM (≈ 0.198 µg/mL).

And the MIC (strain K13b00DS, DS, read-out: MIC 1)?
The MIC was 0.78 µM (≈ 0.257 µg/mL).

And the MIC (strain K13b00DS, DS, read-out: MIC 2)?
Its MIC is 0.6 µM (≈ 0.198 µg/mL).

What about the MIC (strain K14b00DS, DS, read-out: MIC 2) of the same compound?
The MIC was 0.6 µM (≈ 0.198 µg/mL).

What about the MIC (strain K16b00DS, DS, read-out: MIC 1) of the same compound?
Its MIC is 0.39 µM (≈ 0.128 µg/mL).

What about the MIC (strain K16b00DS, DS, read-out: MIC 2) of the same compound?
Its MIC is 0.2 µM (≈ 0.0659 µg/mL).

What about the MIC (strain K35b00DS, DS, read-out: MIC 1) of the same compound?
Its MIC is 0.6 µM (≈ 0.198 µg/mL).

And the MIC (strain K35b00DS, DS, read-out: MIC 2)?
The MIC was 0.39 µM (≈ 0.128 µg/mL).

And the MIC (strain NIH_G1DS, DS, read-out: MIC 1)?
Its MIC is 0.78 µM (≈ 0.257 µg/mL).

What about the MIC (strain NIH_G1DS, DS, read-out: MIC 2) of the same compound?
The MIC was 0.39 µM (≈ 0.128 µg/mL).

And the MIC (strain NIH_G12, read-out: MIC 1)?
The MIC was 0.78 µM (≈ 0.257 µg/mL).

What about the MIC (strain NIH_G13, read-out: MIC 1) of the same compound?
The MIC was 0.6 µM (≈ 0.198 µg/mL).
